Where two headings read alike, the source gives them in different places.
Tests used:
Aspergillus funigatus = assay: efficacy against Aspergillus funigatus; assay type: cell-based
Experimental: (§1) The incorporation of the sugar group into the aminoacridine molecule modifies its properties in an unforeseen way. Thus e.g. 3,6-diamino-acridine and 3,6-diamino-10-methyl-acridine are efficacious in concentrations of 50 μg/ml against microorganisme (Bacillus subtilis, Salmonalla typhy-murium, Proteus vulgaris, Escherichia coli, Shigella flexneri etc.) while the diglucoside of the 3,6-diamino-acridine is inefficacious also in concentrations of 500 μg/ml against the named microorganisms. Inversely the aminoacridines are inefficacious against fungi while the diglucoside of 3,6-diamino-10-methyl-acridine is efficacious e.g. against Aspergillus funigatus and Aspergillus niger.

[1] = system: ascites tumor according to Ehrlich; assay: test with the Ehrlich-carcinoma in mice; assay type: in vivo
Experimental: A test with the Ehrlich-carcinoma was carried out with 50 mice each as test group and as K control group. The animals were intraperitoneally infected with 5×10^6 cells each of the ascites tumor according to Ehrlich. On the first, second and third day after the infection half of the mice were treated with 12.5 mg/kg.d of 10-methyl-proflavine-diglucoside.

Ehrlich tumor = assay: inhibition and prevention of the Ehrlich tumor in mice and rats; assay type: in vivo
[2] = toxicity measurements at CFLP-mice (LD50); conditions: mouse, in vivo, female CFLP-mice
Text: By the incorporation of one or more sugar residue(s) the toxicity of the compounds is influenced positively, too. The results of toxicity measurements carried out at CFLP-mice (female) (Litchfield, J. T. and Wilcoxon F.: J. Pharmacol. 96, 99 (1949) are summarized in the following Table.

Aspergillus niger = assay: efficacy against Aspergillus niger; assay type: cell-based
Experimental: as §1

[3] = decomposition product; cited from earlier work
[4] = known; cited from earlier work
[5] = literature; cited from earlier work
wounds = conditions: disinfecting of wounds, World War II; cited from earlier work
Ehrlich ascites tumor = conditions: Schumelfelder et al., Z. Krebsforsch, 63, 129 (1959); cited from earlier work

C[n+]1c2cc(N[C@@H]3O[C@H](CO)[C@@H](O)[C@H](O)[C@H]3O)ccc2cc2ccc(N[C@@H]3O[C@H](CO)[C@@H](O)[C@H](O)[C@H]3O)cc21.[Cl-] [3,6-Di-(β-D-glucopyranosyl-amino)-10-N-methyl-acridinium chloride]
efficacy against fungi (Aspergillus funigatus): efficacious | Change of body weight in g on the 7th day ([1]; 12.5 mg/kg.d on first, second and third day after infection, 7th day): +1.2 g | Change of body weight in g on the 12th day ([1]; 12.5 mg/kg.d on first, second and third day after infection, 12th day): +2.0 g | Change of body weight in g on the 21st day ([1]; 12.5 mg/kg.d on first, second and third day after infection, 21st day): +2.6 g | treated animals still living on the 40th day ([1]; 12.5 mg/kg.d, 40th day): all treated animals were still living | Average surviving time ([1]; 12.5 mg/kg.d, observation stopped on the 40th day): 40.0 days | state of the animal concerning its condition (Ehrlich tumor; 6.25 mg/kg-12.5 mg/kg i.p.): improves the state of the animal concerning its condition | development of the Ehrlich tumor (Ehrlich tumor; test animals: mice and rats): inhibits the development of the Ehrlich tumor | formation of the Ehrlich tumor (Ehrlich tumor; test animals: mice and rats): prevents its formation | LD50 ([2]; ip, read-out: LD50 i.p.): 210 mg/kg | LD50 ([2]; iv, read-out: LD50 i.v.): 37 mg/kg | efficacy against fungi (Aspergillus niger): efficacious

O=c1c2ccccc2[nH]c2cccc([N+](=O)[O-])c12 [1-nitroacridone]
biological activity [3]: biologically inactive

OC[C@H]1O[C@@H](Nc2ccc3cc4ccc(N[C@@H]5O[C@H](CO)[C@@H](O)[C@H](O)[C@H]5O)cc4nc3c2)[C@H](O)[C@@H](O)[C@@H]1O [3,6-diamino-acridine-diglucoside, 3,6-Di-(β-Di-glucopyranosyl-amino)-acridine]
LD50 ([2]; ip, read-out: LD50 i.p.): 280 mg/kg | LD50 ([2]; iv, read-out: LD50 i.v.): 87 mg/kg

Nc1ccc2cc3ccc(N)cc3nc2c1 [3,6-diamino-acridine, 3,6-diaminoacridine]
antimicrobial effect [4]: exert a certain antimicrobial effect | LD50 ([2]; ip, read-out: LD50 i.p.): 84 mg/kg | LD50 ([2]; iv, read-out: LD50 i.v.): 65 mg/kg | mutation of certain objects [5]: can cause mutation of certain objects | healing of the wound (wounds): slowed down the healing of the wound | tissue necrosis (wounds): caused tissue necrosis

C[n+]1c2cc(N)ccc2cc2ccc(N)cc21 [3,6-diamino-10-methyl-acridine]
antimicrobial effect [4]: exert a certain antimicrobial effect | LD50 ([2]; ip, read-out: LD50 i.p.): 60 mg/kg | LD50 ([2]; iv, read-out: LD50 i.v.): 14 mg/kg | mutation of certain objects [5]: can cause mutation of certain objects | growth of the Ehrlich ascites tumor (Ehrlich ascites tumor): inhibited | healing of the wound (wounds): slowed down the healing of the wound | tissue necrosis (wounds): caused tissue necrosis

Reference: patent US4462993A, “Aminoacridine-α, β-(D)- or -(L)-N-glycoside derivatives, the salts thereof and a process for the preparation of such compounds” (Biogal Gyogyszergyar, priority 1981, dated 1984)
